We go through 32 molecules from patent US6518268B1, “Telomerase inhibitors and methods of their use” (Geron Corporation, priority 1999, dated 2003).

Experiment [1] addresses T1, partially purified telomerase from a nuclear extract of HEK293 cells (Homo sapiens, UniProt O14746).
T1 construct: partially purified telomerase from a nuclear extract of HEK293 cells; endogenous in cells; host or cells: HEK293 cells, nuclear extract, partially purified
Kind of experiment: In vitro telomerase inhibition, membrane hybridization method (U.S. Pat. No. 5,760,062). The following applies: for residual activity of in vitro telomerase activity (in parenthesis): in the presence of the compound at a concentration of 10 μm; for IC50: partially purified telomerase from nuclear extract of HEK293 cells. Format: biochemical. Here is the method:
Alternatively, telomerase inhibitory activity of the compounds was measured in accordance with a known method (U.S. Pat. No. 5,760,062). That is, a dimethyl sulfoxide (DMSO) solution of each agent was mixed with partially purified telomerase from a nuclear extract of HEK293 cells and incubated in the presence of an oligodeoxynucleotide to be used as the substrate and deoxynucleotide triphosphate. The obtained reacted product (DNA having a telomere sequence) was adsorbed on a membrane, and hybridization was carried out using a labeled oligonucleotide probe having a sequence complementary to the telomere sequence. The inhibition ratio was calculated based on the ratio of the signal of label on the membrane in the presence of the agent to the signal of label in the absence of the agent (control). Also, concentration of each agent which inhibits 50% of the enzyme activity based on the control was used as IC50.

In experiment [2] the target is T2, telomerase in human renal carcinoma cell line ACHN (Homo sapiens, UniProt O14746).
T2 construct: human renal carcinoma cell line ACHN for 3 days, and then a cell extract was prepared; endogenous in cells; host or cells: ACHN human renal carcinoma cells; CHAPS extract after 3 days of treatment
Kind of experiment: Telomerase activity in extract of agent-treated ACHN cells (TRAP assay). Type of experiment: cell-based. The following applies: contact 3 days. Here is the method: That is, a cell extract was prepared using a buffer solution containing 0.5% CHAPS. Using the extract, TRAP (Telomeric Repeat Amplification Protocol) assay was carried out in vitro (TRAPEZE™ ELISA Telomerase Detection Kit, manufactured by Intergen). The ratio (%) of the enzyme activity in the extract from agent-treated cells to the enzyme activity in the extract from agent-untreated cells was calculated.

Setting [3] is: concentration 30 μM, read-out: Residual Enzyme Activity (%).
The mark [4] stands for this setting: concentration 10 μM, read-out: Residual Enzyme Activity (%).

T2 sequence (O14746 whole entry): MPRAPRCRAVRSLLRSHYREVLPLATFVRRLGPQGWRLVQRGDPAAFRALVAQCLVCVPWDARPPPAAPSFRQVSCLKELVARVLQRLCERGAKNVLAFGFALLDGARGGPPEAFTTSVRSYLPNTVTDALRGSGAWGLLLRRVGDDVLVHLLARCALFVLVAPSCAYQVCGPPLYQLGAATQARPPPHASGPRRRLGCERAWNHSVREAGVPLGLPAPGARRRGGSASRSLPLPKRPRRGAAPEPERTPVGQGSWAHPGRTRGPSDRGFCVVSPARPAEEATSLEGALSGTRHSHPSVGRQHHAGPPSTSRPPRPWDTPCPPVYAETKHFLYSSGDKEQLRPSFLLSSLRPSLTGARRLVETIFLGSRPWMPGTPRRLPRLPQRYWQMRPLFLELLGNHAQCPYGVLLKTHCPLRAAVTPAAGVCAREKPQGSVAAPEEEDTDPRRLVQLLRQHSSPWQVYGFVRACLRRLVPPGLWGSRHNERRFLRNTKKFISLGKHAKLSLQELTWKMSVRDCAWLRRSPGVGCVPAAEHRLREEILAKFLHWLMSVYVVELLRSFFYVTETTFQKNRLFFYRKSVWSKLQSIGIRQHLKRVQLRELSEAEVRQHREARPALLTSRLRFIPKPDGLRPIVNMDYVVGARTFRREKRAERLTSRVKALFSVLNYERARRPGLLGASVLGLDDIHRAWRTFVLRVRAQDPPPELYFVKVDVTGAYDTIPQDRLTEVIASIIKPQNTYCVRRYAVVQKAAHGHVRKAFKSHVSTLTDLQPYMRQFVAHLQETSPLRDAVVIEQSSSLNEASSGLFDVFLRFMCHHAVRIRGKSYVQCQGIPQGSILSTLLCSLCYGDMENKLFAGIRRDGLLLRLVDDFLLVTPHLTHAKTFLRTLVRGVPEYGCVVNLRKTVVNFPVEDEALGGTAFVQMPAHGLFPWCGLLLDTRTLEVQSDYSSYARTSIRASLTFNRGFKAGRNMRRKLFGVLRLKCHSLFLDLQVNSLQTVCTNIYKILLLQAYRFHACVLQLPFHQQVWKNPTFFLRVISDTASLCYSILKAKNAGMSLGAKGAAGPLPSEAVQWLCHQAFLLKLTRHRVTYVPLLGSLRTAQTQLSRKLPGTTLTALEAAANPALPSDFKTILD
T2 sequence (O60832 whole entry partner): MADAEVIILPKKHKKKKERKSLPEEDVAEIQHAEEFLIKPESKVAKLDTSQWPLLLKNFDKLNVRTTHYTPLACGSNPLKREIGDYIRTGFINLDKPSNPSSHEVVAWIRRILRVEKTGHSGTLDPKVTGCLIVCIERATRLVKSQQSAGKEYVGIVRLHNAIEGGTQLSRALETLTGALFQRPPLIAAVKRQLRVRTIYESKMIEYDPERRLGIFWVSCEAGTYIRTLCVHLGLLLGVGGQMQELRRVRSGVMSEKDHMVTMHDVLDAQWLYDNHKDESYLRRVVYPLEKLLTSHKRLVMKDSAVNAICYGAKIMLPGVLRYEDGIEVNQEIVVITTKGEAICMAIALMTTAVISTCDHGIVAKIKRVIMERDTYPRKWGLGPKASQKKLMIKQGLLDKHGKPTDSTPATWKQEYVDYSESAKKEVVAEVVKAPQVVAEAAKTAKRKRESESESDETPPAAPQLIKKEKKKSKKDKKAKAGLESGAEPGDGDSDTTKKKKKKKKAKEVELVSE
T2 sequence (Q9NPE3 whole entry partner): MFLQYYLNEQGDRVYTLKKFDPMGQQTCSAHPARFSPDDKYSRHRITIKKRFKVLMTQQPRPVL
T2 sequence (Q9NX24 whole entry partner): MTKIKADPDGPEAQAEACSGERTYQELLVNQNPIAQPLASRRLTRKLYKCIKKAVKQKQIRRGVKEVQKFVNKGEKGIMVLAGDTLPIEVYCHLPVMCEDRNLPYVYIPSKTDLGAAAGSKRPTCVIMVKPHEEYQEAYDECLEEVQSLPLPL
T2 sequence (Q9NY12 whole entry partner): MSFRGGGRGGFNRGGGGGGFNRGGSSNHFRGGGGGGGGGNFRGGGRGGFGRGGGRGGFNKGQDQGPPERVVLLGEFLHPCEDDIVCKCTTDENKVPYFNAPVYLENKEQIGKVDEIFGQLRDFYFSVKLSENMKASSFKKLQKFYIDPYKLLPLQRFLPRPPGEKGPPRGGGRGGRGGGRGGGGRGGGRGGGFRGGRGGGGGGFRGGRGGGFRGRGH
T1 sequence (O14746 whole entry): as the sequence (O14746 whole entry) above
T1 sequence (O60832 whole entry partner): as the sequence (O60832 whole entry partner) above
T1 sequence (Q9NPE3 whole entry partner): as the sequence (Q9NPE3 whole entry partner) above
T1 sequence (Q9NX24 whole entry partner): as the sequence (Q9NX24 whole entry partner) above
T1 sequence (Q9NY12 whole entry partner): as the sequence (Q9NY12 whole entry partner) above

With `Cc1ccc([S+]([O-])c2ccc(C(F)(F)F)cc2C=C2SC(=O)NC2=O)cc1` (stereo not drawn) [Compound 113], the “residual activity of in vitro telomerase activity (in parenthesis)” value (shortened to “residual activity”) in experiment [1] is recorded as “(68%)”. Besides, the “Residual Enzyme Activity (%)” value in experiment [2] (concentration 30 μM) is given as 37%.
Consider `Cc1ccc(Sc2ccc(-c3ccccn3)cc2C=C2SC(=O)NC2=O)cc1` [Compound 89], for which the “residual activity” value in experiment [1] was “(56%)”. For the same molecule, in experiment [2] (concentration 30 μM), the “Residual Enzyme Activity (%)” value came out at 2%.
As a reminder, the IC50 is the concentration at which inhibition is half-maximal. Molecule `CCN(CC)C(=O)c1cc(C=C2SC(=O)NC2=O)c(Sc2ccc(Cl)cc2)s1` [Compound 54] had an IC50 in experiment [1] of 7.4 µM. The remaining activity at 30 µM in experiment [2] (setting [3]) worked out at 50%.
The matching figures for `Cc1ccc(Sc2ccc(-c3cccs3)cc2C=C2SC(=O)NC2=O)cc1` [Compound 92]: 5.6 µM and 41%.
In the case of `O=C1NC(=S)SC1=Cc1cc([N+](=O)[O-])ccc1Sc1ccc(Cl)cc1` [Compound 37], the midpoint of inhibition in experiment [1], the IC50, lay at 6 µM. For the same molecule, the “Residual Enzyme Activity (%)” value in experiment [2] (concentration 30 μM) was found to be 39%.
For the molecule `CC(=O)Nc1ccc(Sc2ccc(C)cc2)c(C=C2SC(=O)NC2=O)c1` [Compound 3], the “Residual Enzyme Activity (%)” value in experiment [2] (concentration 100 μM) stood at 0%.
Turning to `Cc1ccc(S(=O)(=O)c2ccc(C=C3SC(=O)NC3=O)cc2[N+](=O)[O-])cc1` [Compound 83], the “residual activity” value in experiment [1] was “(58%)”. In addition, the “Residual Enzyme Activity (%)” value in experiment [2] (concentration 10 μM) is given as 32%.
Turning to `O=C1NC(=O)C(=Cc2cccc(Oc3ccccc3)c2)S1` [Compound 11], in experiment [2] (concentration 100 μM), the “Residual Enzyme Activity (%)” value was determined as 50%.
In experiment [1], `O=C1NC(=O)/C(=C/c2cc([N+](=O)[O-])ccc2[S+]([O-])c2ccc(Cl)cc2)S1` (stereo not drawn) [Compound 68] displayed a concentration for half-maximal inhibition (IC50) of 2.7 µM. The remaining activity at 10 µM in experiment [2] (setting [4]) amounted to 18%.
Regarding `O=C1NC(=O)/C(=C/c2cc([N+](=O)[O-])ccc2[S+]([O-])c2ccc(Cl)c(Cl)c2)S1` (stereo not drawn) [Compound 135], half-maximal inhibition in experiment [1] (IC50) was put at 4.5 µM. For the same molecule, the remaining activity at 3 µM in experiment [2] (concentration 3 μM, read-out: Residual Enzyme Activity (%)) was found to be 14%.
`O=C1NC(=O)C(=Cc2cc([N+](=O)[O-])ccc2[S+]([O-])c2cccc(Cl)c2)S1` (stereo not drawn) [Compound 134]: in experiment [1], the “residual activity” value is “(59%)”. Also, the “Residual Enzyme Activity (%)” value in experiment [2] (concentration 10 μM) worked out at 4%.
Molecule `O=C1NC(=O)C(=Cc2cc(C(=O)N3CCOCC3)sc2Sc2ccc(Cl)cc2)S1` [Compound 57] displayed an IC50 in experiment [1] of 54 µM. For the same molecule, the remaining activity at 30 µM in experiment [2] (setting [3]) came to 24%.
As to `Cc1ccc(COc2ccc([N+](=O)[O-])c(C=C3SC(=O)NC3=O)c2)cc1` [Compound 21], in experiment [1], half-maximal inhibition (IC50) was put at 4.3 µM. The “Residual Enzyme Activity (%)” value in experiment [2] (concentration 30 μM) was 35%.
The matching figures for `O=C1NC(=O)C(=Cc2cc(C(=O)c3ccc(Cl)cc3)c(S(=O)(=O)c3ccc(Cl)cc3)s2)S1` [Compound 66]: 3.7 µM and 0%.
The matching figures for `Cc1ccc(Sc2ccc([N+](=O)[O-])cc2C=C2SC(=O)NC2=O)cc1` [Compound 1]: 21 µM and 11%.
Turning to `O=C1NC(=O)C(=Cc2ccc(Oc3ccccc3)cc2)S1` [Compound 14], the IC50 in experiment [1] was found to be 4 µM. Also, the “Residual Enzyme Activity (%)” value in experiment [2] (concentration 100 μM) is 47%.
For the molecule `Cc1ccc(Sc2ccc([N+](=O)[O-])cc2C=C2SC(=S)NC2=O)cc1` [Compound 38], the “Residual Enzyme Activity (%)” value in experiment [2] (concentration 30 μM) is on record as 36%.
With `Cc1ccc([S+]([O-])c2ccc([N+](=O)[O-])cc2C=C2SC(=O)NC2=O)cc1` (stereo not drawn) [Compound 4], the IC50 in experiment [1] came out at 30 µM. Further, the “Residual Enzyme Activity (%)” value in experiment [2] (concentration 10 μM) is recorded as 16%.
Turning to `CC(=O)c1ccc(Sc2ccc(C)cc2)c(C=C2SC(=O)NC2=O)c1` [Compound 97], half-maximal inhibition in experiment [1] (IC50) required 5.6 µM. For the same molecule, the remaining activity at 30 µM in experiment [2] (setting [3]) stood at 41%.
The matching figures for `CN1CCN(C(=O)c2cc(C=C3SC(=O)NC3=O)c(Sc3ccc(Cl)cc3)s2)CC1` [Compound 56]: 7.9 µM and 26%.
Consider `Cc1ccc([S+]([O-])c2ccc(C=C3SC(=O)NC3=O)cc2Br)cc1` (stereo not drawn) [Compound 143], for which the “residual activity” value in experiment [1] was “(62%)”. In experiment [2] (concentration 30 μM), the “Residual Enzyme Activity (%)” value came out at 36%.
As for `O=C1NC(=O)C(=Cc2cc([N+](=O)[O-])ccc2S(=O)(=O)C2CCCCC2)S1` [Compound 86], 8 µM corresponded to half-maximal inhibition in experiment [1] (IC50). Moreover, in experiment [2] (setting [4]), the remaining activity at 10 µM came out at 44%.
Take `Cc1ccc(COc2ccccc2C=C2SC(=O)NC2=O)cc1` [Compound 22]: the “Residual Enzyme Activity (%)” value in experiment [2] (concentration 100 μM) amounted to 33%.
For the molecule `Cc1ccc(Oc2cccc(C=C3SC(=O)NC3=O)c2)cc1` [Compound 12], the half-inhibitory concentration (IC50) in experiment [1] is 5.8 µM. Besides, in experiment [2] (concentration 100 μM), the “Residual Enzyme Activity (%)” value was determined as 26%.
Turning to `CCc1ccc([S+]([O-])c2ccc([N+](=O)[O-])cc2/C=C2\SC(=O)NC2=O)cc1` (stereo not drawn) [Compound 133], inhibition in experiment [1] was half-maximal at 9.1 µM (IC50). The remaining activity at 10 µM in experiment [2] (setting [4]) was 11%.
In the case of `Cc1ccc([S+]([O-])c2ccc(C=C3SC(=O)NC3=O)cc2[N+](=O)[O-])cc1` (stereo not drawn) [Compound 82], the “residual activity” value in experiment [1] is on record as “(51%)”. Besides, in experiment [2] (concentration 3 μM), the “Residual Enzyme Activity (%)” value came out at 23%.
For `O=C1NC(=O)C(=Cc2cc([N+](=O)[O-])ccc2S(=O)(=O)c2ccc(Cl)cc2)S1` [Compound 69], half-maximal inhibition in experiment [1] (IC50) was put at 0.48 µM. Also, in experiment [2] (setting [4]), the remaining activity at 10 µM worked out at 16%.
Take `Cc1ccc([S+]([O-])c2ccc(C=C3SC(=O)NC3=O)cc2Cl)cc1` (stereo not drawn) [Compound 141]: the “residual activity” value in experiment [1] is “(64%)”. The “Residual Enzyme Activity (%)” value in experiment [2] (concentration 30 μM) is 26%.
`O=C1NC(=O)C(=Cc2cc([N+](=O)[O-])ccc2OCc2ccccc2)S1` [Compound 16] gave a half-maximal inhibitory concentration (IC50) in experiment [1] of 26 µM. In experiment [2] (concentration 100 μM), the “Residual Enzyme Activity (%)” value is 0%.
On to `Cc1ccc(S(=O)(=O)c2ccc([N+](=O)[O-])cc2C=C2SC(=O)NC2=O)cc1` [Compound 5], for which, in experiment [1], the IC50 was determined as 23 µM. For the same molecule, the “Residual Enzyme Activity (%)” value in experiment [2] (concentration 10 μM) worked out at 16%.
The matching figures for `O=C1NC(=O)C(=Cc2cc([N+](=O)[O-])ccc2[S+]([O-])c2ccncc2)S1` (stereo not drawn) [Compound 120]: 9.3 µM and 40%.
Molecule `O=C1NC(=O)C(=Cc2cc([N+](=O)[O-])ccc2S(=O)(=O)Cc2ccccc2)S1` [Compound 78] came in with a concentration for half-maximal inhibition (IC50) in experiment [1] of 5.5 µM. The remaining activity at 10 µM in experiment [2] (setting [4]) turned out to be 25%.
